This is an account of results in patent US20020052317A1, “Anti-viral and anti-tumor chemotherapy by administration of erythropoeitin” (priority 2000, published 2002).

The subject of data set [1] is subjects treated with REBETRON for chronic hepatitis C. Particulars: either ribavirin, interferon, or both agents; cited from earlier work.
Data set [2] deals with anemic HCV infected patients receiving combination RBV/IFN alfa-2b. Nature of the data set: Open-label, randomized, parallel-group study of PROCRIT once weekly versus standard of care in hepatitis C patients on ribavirin/interferon alfa-2b. It is filed as in vivo, human.
Data set [3] relates to patients co-infected with HIV and HCV. Particulars: cited from earlier work.
Another data set addresses T1, TNFβ (lymphotoxin α) (Homo sapiens, UniProt P01374).
T1 sequence (P01374 35-205): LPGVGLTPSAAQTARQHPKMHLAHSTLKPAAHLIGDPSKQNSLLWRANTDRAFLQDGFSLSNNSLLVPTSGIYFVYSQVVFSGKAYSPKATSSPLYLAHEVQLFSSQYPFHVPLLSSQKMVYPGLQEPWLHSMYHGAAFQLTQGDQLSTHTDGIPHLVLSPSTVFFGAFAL
Particulars: cited from earlier work.

The conditions of data set [4]: in vivo, 5 mg/kg; cited from earlier work.
Setting [5] is: last available time point vs baseline, PROCRIT 40,000 Units qw s.c., N=22.

Take `NC(=O)c1ncn([C@@H]2O[C@H](CO)[C@@H](O)[C@H]2O)n1` [REBETOL, 1β-D-ribofuranosyl 1H-1,2,4-Triazole-3-carboxamide]: the “patients requiring a dose modification” value in data set [1] is recorded as “about 26%”.

As for Epoetin alfa [PROCRIT], the “hemoglobin levels (in words)” value in data set [2] (anemic patients on Ribavirin/INF-alpha, FIG. 1) is recorded as “increase their hemoglobin levels to near normal levels”. Further, in data set [2] (baseline, before PROCRIT, N=25), the “Hb Range” value was 9.1 to 12.0 g/dL and the “Mean Hb” value was determined as 11 g/dL. Besides, in data set [2] (setting [5]), the “Change Hb Range” value is -1.4 to 6.2 g/dL and the “Mean change Hb” value worked out at 2.4 g/dL. In addition, in data set [2] (last available time point, PROCRIT 40,000 Units qw s.c., N=22), the “Hb Range” value was 7.7 to 16.8 g/dL. Further, the “Mean Hb” value in data set [2] (last available time point, analysis after 16 weeks, PROCRIT 40,000 Units qw s.c., N=22) is 13.5 g/dL. Also, the patient well being result in data set [2] (reported even before hemoglobin levels improved) is “demonstrated better well being”. Further, the “ability to maintain Ribavirin dosing” value in data set [2] (throughout the study period, FIG. 2) is recorded as “increased ability to maintain Ribavirin dosing”. Moreover, in data set [3] (before r-HuEPO 40,000 U once weekly), the “hemoglobin (Hb) value at initiation of r-HuEPO” value is 10 g/dL. Also, the “hemoglobin (Hb) value after r-HuEPO treatment” value in data set [3] (r-HuEPO 40,000 U once weekly, after a median of four weeks) was 12.7 g/dL.

As to “Infliximab: monoclonal antibody that blocks the biological activity of circulating TNFα”, in the data set with TNFβ (lymphotoxin α), the “neutralization of TNFβ (lymphotoxin α)” value was “does not neutralize”. Besides, in data set [4], the “median Cmax” value is 118 µg/mL, the “median Vd (volume of distribution at steady state)” value is 3.0 L and the terminal half-life was 228 h.
